Measurements reported in the supplement of paper PMC10627819.

Tests used:
B. subtilis 168 [1] = assay: fitness (endpoint OD595 vs no drug) (fraction); higher = more growth
Summary of the method: (§1)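 Plates with 384 wells were inoculated at OD595 0.01 using 30 µl of TSB, LB Lennox or CY, or 55 µl for S. pneumoniae. Incubation was at 37 °C, with OD595 measured every 30 min for 14 h. Fitness is the stationary-phase transition optical density over the robust mean of no-drug control wells, after first-reading background subtraction; it is capped at 1.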

S. aureus DSM 20231 [2] = assay: as above
Summary of the method: as §1

S. pneumoniae D39V [3] = assay: as above
Summary of the method: as §1

S. aureus Newman = assay: Bliss interaction score (quartile over a dose matrix) (fitness difference); higher = more antagonism (negative = synergy)
Summary of the method: (§2)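 Each plate was normalised to the robust mean of its own no-drug wells, using OD595 at entry into stationary phase, with values capped at 1. This normalised growth is the fitness value. The Bliss score is the difference between observed and product-expected fitness, with single-drug fitness inferred from the combination data and quartiles taken over technical, biological and donor/recipient replicates.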

B. subtilis 168 [4] = assay: as above
Summary of the method: as §2

S. aureus DSM 20231 [5] = assay: as above
Summary of the method: as §2

S. pneumoniae D39V [6] = assay: as above
Summary of the method: as §2
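Wherever Bliss interaction score (quartile over a dose matrix) is given: first quartile when negative (synergy) and third quartile when positive (antagonism).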

CC(=O)NC[C@H]1CN(c2ccc(N3CCOCC3)c(F)c2)C(=O)O1 [Linezolid] + CN1C2=CC=CC=C2N=C3C1=CC=CC3=O [Pyocyanin]
one replicate
Conditions	fitness
B. subtilis 168 [1], first compound 0.0625 µg/mL, partner 1.25 µg/mL	0.804
B. subtilis 168 [1], first compound 0.0625 µg/mL, partner 2.5 µg/mL	0.749
B. subtilis 168 [1], first compound 0.0625 µg/mL, partner 5 µg/mL	0.594
S. aureus DSM 20231 [2], first compound 1 µg/mL, partner 1.25 µg/mL	0.0458
S. aureus DSM 20231 [2], first compound 1 µg/mL, partner 2.5 µg/mL	0.0282
S. aureus DSM 20231 [2], first compound 1 µg/mL, partner 5 µg/mL	0.0258
S. pneumoniae D39V [3], first compound 0.2 µg/mL, partner 0.325 µg/mL	0.892
S. pneumoniae D39V [3], first compound 0.2 µg/mL, partner 0.65 µg/mL	0.824
S. pneumoniae D39V [3], first compound 0.4 µg/mL, partner 0.325 µg/mL	0.745
S. pneumoniae D39V [3], first compound 0.4 µg/mL, partner 0.65 µg/mL	0.745
S. pneumoniae D39V [3], first compound 0.8 µg/mL, partner 0.325 µg/mL	0.483
S. pneumoniae D39V [3], first compound 0.8 µg/mL, partner 0.65 µg/mL	0.603

Conditions	fitness
B. subtilis 168 [1], first compound 0.125 µg/mL, partner 1.25 µg/mL	0.563
B. subtilis 168 [1], first compound 0.125 µg/mL, partner 2.5 µg/mL	0.544
B. subtilis 168 [1], first compound 0.125 µg/mL, partner 5 µg/mL	0.466
B. subtilis 168 [1], first compound 0.25 µg/mL, partner 2.5 µg/mL	0.093
B. subtilis 168 [1], first compound 0.25 µg/mL, partner 5 µg/mL	0.131
B. subtilis 168 [1], first compound 0.5 µg/mL, partner 1.25 µg/mL	0.027
B. subtilis 168 [1], first compound 0.5 µg/mL, partner 2.5 µg/mL	0.0397
B. subtilis 168 [1], first compound 0.5 µg/mL, partner 5 µg/mL	0.0383
S. aureus DSM 20231 [2], first compound 0.125 µg/mL, partner 1.25 µg/mL	0.768
S. aureus DSM 20231 [2], first compound 0.125 µg/mL, partner 2.5 µg/mL	0.829
S. aureus DSM 20231 [2], first compound 0.125 µg/mL, partner 5 µg/mL	0.546
S. aureus DSM 20231 [2], first compound 0.25 µg/mL, partner 1.25 µg/mL	0.559
S. aureus DSM 20231 [2], first compound 0.5 µg/mL, partner 1.25 µg/mL	0.208
S. aureus DSM 20231 [2], first compound 0.5 µg/mL, partner 2.5 µg/mL	0.143
S. aureus DSM 20231 [2], first compound 0.5 µg/mL, partner 5 µg/mL	0.0745
S. pneumoniae D39V [3], first compound 0.105 µg/mL, partner 0.325 µg/mL	0.858
S. pneumoniae D39V [3], first compound 0.105 µg/mL, partner 0.65 µg/mL	0.882
S. pneumoniae D39V [3], first compound 0.105 µg/mL, partner 1.3 µg/mL	0.632
S. pneumoniae D39V [3], first compound 0.21 µg/mL, partner 0.325 µg/mL	0.773
S. pneumoniae D39V [3], first compound 0.21 µg/mL, partner 0.65 µg/mL	0.775
S. pneumoniae D39V [3], first compound 0.21 µg/mL, partner 1.3 µg/mL	0.608
S. pneumoniae D39V [3], first compound 0.42 µg/mL, partner 0.325 µg/mL	0.605
S. pneumoniae D39V [3], first compound 0.42 µg/mL, partner 0.65 µg/mL	0.589
S. pneumoniae D39V [3], first compound 0.42 µg/mL, partner 1.3 µg/mL	0.389

Conditions	Bliss interaction score
B. subtilis 168 [4]	0.109
S. aureus DSM 20231 [5]	0.047
S. aureus Newman	-0.0368
S. pneumoniae D39V [6]	0.118

CC(=O)NC[C@H]1CN(c2ccc(N3CCOCC3)c(F)c2)C(=O)O1 [Linezolid] + CN(N=O)C(=O)N[C@@H](C=O)[C@@H](O)[C@H](O)[C@H](O)CO [Streptozotocin]
fitness, one replicate
Conditions	partner 0.15 µg/mL	partner 0.3 µg/mL	partner 0.6 µg/mL	partner 1.2 µg/mL	partner 2.4 µg/mL	partner 4.8 µg/mL
B. subtilis 168 [1], first compound 0.0625 µg/mL	0.957	0.927	0.929	–	–	–
B. subtilis 168 [1], first compound 0.5 µg/mL	0.0222	0.0242	0.0095	–	–	–
S. aureus DSM 20231 [2], first compound 1 µg/mL	0.023	0.0376	0.0265	–	–	–
S. pneumoniae D39V [3], first compound 0.2 µg/mL	–	–	–	0.806	0.823	0.787
S. pneumoniae D39V [3], first compound 0.4 µg/mL	–	–	–	0.615	0.69	0.653
S. pneumoniae D39V [3], first compound 0.8 µg/mL	–	–	–	0.299	0.351	0.204

fitness
Conditions	partner 0.15 µg/mL	partner 0.3 µg/mL	partner 0.6 µg/mL	partner 1.2 µg/mL	partner 2.4 µg/mL	partner 4.8 µg/mL
B. subtilis 168 [1], first compound 0.125 µg/mL	0.479	0.502	0.453	–	–	–
B. subtilis 168 [1], first compound 0.25 µg/mL	0.0775	0.0625	0.0614	–	–	–
S. aureus DSM 20231 [2], first compound 0.125 µg/mL	0.778	0.738	0.68	–	–	–
S. aureus DSM 20231 [2], first compound 0.25 µg/mL	0.519	0.504	0.496	–	–	–
S. aureus DSM 20231 [2], first compound 0.5 µg/mL	0.129	0.176	0.133	–	–	–
S. pneumoniae D39V [3], first compound 0.105 µg/mL	–	–	–	0.771	0.815	0.778
S. pneumoniae D39V [3], first compound 0.21 µg/mL	–	–	–	0.69	0.668	0.704
S. pneumoniae D39V [3], first compound 0.42 µg/mL	–	–	–	0.438	0.432	0.408

Conditions	Bliss interaction score
B. subtilis 168 [4]	-0.0322
S. aureus DSM 20231 [5]	-0.0379
S. aureus Newman	-0.0367
S. pneumoniae D39V [6]	-0.115
